Where two headings read alike, the source gives them in different places.
Columns and labels:
LKB1 = target: T1, LKB1 (Homo sapiens, UniProt Q15831); assay: Kinase profiling LKB1; format: biochemical; details: for remaining activity at 100 µM: read-out: residual kinase activity, LKB1
T1 sequence (Q15831 1-433): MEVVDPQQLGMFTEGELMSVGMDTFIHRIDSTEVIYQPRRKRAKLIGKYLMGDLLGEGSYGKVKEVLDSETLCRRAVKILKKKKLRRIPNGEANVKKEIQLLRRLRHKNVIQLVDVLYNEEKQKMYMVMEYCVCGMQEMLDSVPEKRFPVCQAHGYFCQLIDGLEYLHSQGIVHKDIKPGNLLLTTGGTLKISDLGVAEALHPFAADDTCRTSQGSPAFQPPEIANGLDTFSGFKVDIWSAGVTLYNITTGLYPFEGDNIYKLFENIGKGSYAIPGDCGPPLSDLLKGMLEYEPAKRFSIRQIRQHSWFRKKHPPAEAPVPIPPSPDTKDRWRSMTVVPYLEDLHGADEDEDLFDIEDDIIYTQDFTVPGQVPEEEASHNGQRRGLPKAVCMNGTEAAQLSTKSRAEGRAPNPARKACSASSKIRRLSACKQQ
T1 sequence (Q7RTN6 1-431 partner): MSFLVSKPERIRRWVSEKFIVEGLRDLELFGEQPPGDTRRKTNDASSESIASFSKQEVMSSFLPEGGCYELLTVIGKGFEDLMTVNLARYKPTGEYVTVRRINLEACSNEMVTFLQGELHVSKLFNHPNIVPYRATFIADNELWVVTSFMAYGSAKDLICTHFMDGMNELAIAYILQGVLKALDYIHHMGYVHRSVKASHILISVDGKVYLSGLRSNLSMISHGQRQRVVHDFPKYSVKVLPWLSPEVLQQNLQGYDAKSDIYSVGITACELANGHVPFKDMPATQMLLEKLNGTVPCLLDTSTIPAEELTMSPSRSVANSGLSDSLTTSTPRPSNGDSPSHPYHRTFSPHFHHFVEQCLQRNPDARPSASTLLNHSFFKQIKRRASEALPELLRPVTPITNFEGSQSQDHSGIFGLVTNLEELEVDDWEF
T1 sequence (Q9Y376 1-341 partner): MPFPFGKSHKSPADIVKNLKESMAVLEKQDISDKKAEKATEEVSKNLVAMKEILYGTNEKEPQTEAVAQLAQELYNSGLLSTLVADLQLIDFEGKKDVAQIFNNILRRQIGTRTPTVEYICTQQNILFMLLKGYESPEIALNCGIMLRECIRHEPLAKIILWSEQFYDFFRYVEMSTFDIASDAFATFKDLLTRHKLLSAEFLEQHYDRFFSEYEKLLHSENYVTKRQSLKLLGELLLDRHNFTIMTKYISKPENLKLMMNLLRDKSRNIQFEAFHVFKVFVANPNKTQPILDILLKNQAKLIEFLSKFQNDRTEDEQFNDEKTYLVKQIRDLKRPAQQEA
Excerpt: (§1) Any value less that 25 is considered to be highly significant inhibition.

TrkA = TrkA (Homo sapiens, UniProt P04629); assay: Kinase profiling TrkA; format: biochemical; details: for remaining activity at 100 µM: read-out: residual kinase activity, TrkA
TrkA, sequence (P04629 33-796, species assumed): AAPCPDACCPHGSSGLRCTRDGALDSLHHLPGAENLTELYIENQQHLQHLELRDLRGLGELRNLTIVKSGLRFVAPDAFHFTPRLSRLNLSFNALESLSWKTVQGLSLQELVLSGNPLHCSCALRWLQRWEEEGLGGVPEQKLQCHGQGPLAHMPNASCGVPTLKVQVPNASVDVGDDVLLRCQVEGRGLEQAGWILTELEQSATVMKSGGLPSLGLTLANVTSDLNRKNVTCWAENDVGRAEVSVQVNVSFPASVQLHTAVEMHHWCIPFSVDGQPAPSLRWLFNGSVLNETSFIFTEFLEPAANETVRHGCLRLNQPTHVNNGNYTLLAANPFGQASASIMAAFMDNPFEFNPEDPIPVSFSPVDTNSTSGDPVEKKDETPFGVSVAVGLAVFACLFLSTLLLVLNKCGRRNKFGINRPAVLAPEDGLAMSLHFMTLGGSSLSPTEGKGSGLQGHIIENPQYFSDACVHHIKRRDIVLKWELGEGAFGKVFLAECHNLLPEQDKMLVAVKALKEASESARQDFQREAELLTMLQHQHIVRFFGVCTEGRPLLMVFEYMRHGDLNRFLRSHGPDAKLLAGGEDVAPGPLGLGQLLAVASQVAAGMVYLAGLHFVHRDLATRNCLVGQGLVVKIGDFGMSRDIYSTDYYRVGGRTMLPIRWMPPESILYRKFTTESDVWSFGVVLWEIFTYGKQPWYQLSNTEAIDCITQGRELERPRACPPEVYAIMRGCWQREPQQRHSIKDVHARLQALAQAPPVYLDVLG
Excerpt: as §1

JNK1 = JNK1 (Homo sapiens, UniProt P45983); assay: Kinase profiling JNK1; format: biochemical; details: for remaining activity at 100 µM: read-out: residual kinase activity, JNK1
JNK1, sequence (P45983 whole entry, species assumed): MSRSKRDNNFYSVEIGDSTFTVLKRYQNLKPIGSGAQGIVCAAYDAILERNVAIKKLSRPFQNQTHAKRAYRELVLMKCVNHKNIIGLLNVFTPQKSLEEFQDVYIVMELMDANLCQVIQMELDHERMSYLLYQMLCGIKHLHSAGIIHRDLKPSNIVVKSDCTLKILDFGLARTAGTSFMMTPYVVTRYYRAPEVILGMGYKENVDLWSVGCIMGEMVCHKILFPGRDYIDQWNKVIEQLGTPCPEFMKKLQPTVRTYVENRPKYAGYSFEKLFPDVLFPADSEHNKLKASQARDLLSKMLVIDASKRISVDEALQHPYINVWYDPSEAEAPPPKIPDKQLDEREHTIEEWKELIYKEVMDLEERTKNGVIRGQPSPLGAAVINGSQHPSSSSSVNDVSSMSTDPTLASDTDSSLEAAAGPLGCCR
Excerpt: as §1

JAK2 = JAK2 (Homo sapiens, UniProt O60674); assay: Kinase profiling JAK2; format: biochemical; details: for remaining activity at 100 µM: read-out: residual kinase activity, JAK2
Excerpt: as §1

PDK1 = target: T2, PDK1 (Homo sapiens, UniProt O15530); assay: Kinase profiling PDK1; format: biochemical; details: for remaining activity at 100 µM: read-out: residual kinase activity, PDK1
T2 sequence (O15530 1-556): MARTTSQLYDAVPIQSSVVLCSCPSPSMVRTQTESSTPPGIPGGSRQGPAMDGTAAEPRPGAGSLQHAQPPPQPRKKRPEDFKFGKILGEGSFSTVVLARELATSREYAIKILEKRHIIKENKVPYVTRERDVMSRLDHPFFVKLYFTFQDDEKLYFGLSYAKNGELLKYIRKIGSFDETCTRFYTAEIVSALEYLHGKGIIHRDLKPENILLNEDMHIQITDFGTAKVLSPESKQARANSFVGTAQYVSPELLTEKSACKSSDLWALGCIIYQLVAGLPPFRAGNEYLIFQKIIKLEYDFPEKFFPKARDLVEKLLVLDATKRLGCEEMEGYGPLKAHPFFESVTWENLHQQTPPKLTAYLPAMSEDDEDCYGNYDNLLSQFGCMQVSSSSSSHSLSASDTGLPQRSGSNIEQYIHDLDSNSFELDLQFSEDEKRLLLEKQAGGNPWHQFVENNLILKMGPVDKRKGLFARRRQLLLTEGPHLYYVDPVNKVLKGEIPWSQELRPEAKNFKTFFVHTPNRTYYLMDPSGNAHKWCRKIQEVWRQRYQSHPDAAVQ
Excerpt: as §1

JNK2 = JNK2 (Homo sapiens, UniProt P45984); assay: Kinase profiling JNK2; format: biochemical; details: for remaining activity at 100 µM: read-out: residual kinase activity, JNK2
JNK2, sequence (P45984 whole entry, species assumed): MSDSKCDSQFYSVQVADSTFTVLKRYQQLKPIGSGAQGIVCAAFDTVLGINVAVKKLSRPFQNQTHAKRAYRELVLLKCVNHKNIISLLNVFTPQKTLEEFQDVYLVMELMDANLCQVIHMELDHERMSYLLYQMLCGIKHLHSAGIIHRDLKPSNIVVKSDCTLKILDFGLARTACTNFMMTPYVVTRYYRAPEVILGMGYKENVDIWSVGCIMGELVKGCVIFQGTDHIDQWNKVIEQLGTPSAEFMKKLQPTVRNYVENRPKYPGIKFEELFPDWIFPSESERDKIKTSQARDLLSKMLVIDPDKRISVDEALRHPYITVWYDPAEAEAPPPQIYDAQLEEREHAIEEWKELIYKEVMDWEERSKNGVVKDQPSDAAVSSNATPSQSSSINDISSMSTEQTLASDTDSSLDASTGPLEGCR
Excerpt: as §1

STK33 = STK33 (Homo sapiens, UniProt Q9BYT3); assay: Kinase profiling STK33; format: biochemical; details: for remaining activity at 100 µM: read-out: residual kinase activity, STK33
STK33, sequence (Q9BYT3 whole entry, species assumed): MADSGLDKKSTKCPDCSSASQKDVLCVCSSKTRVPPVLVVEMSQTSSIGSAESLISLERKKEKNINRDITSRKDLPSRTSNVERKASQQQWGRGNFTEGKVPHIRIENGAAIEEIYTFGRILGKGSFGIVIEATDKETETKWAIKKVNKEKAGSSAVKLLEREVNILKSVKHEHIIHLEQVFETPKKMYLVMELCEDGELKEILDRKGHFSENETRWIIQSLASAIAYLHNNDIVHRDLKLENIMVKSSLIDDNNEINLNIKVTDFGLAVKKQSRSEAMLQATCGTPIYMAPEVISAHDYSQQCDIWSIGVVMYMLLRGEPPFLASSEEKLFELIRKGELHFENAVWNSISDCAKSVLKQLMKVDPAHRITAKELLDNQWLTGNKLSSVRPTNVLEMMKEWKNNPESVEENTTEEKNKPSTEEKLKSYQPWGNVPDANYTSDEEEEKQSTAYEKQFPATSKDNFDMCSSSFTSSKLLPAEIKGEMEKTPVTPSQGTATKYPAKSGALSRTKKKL
Excerpt: as §1

S6K1 = S6K1 (Homo sapiens, UniProt P23443); assay: Kinase profiling S6K1; format: biochemical; details: for remaining activity at 100 µM: read-out: residual kinase activity, S6K1
S6K1, sequence (P23443 whole entry, species assumed): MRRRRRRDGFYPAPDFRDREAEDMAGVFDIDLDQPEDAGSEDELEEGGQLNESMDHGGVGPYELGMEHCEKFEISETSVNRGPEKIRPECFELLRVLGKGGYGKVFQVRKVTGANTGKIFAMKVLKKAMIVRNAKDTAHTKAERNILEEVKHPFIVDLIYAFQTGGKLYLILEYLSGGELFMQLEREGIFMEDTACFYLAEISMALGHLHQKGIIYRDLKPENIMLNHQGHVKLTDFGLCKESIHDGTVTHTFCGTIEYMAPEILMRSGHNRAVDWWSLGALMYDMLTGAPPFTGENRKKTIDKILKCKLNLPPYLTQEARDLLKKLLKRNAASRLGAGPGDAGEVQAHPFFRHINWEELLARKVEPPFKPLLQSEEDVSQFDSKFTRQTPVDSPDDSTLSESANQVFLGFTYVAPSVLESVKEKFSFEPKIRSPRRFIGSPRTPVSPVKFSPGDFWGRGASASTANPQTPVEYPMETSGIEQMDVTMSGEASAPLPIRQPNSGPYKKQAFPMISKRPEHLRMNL
Excerpt: as §1

CAMK1 = CAMK1 (Homo sapiens, UniProt Q14012); assay: Kinase profiling CAMK1; format: biochemical; details: for remaining activity at 100 µM: read-out: residual kinase activity, CAMK1
Excerpt: as §1

ERK1 = ERK1 (Homo sapiens, UniProt P27361); assay: Kinase profiling ERK1; format: biochemical; details: for remaining activity at 100 µM: read-out: residual kinase activity, ERK1
Excerpt: as §1

JNK3 = JNK3 (Homo sapiens, UniProt P53779); assay: Kinase profiling JNK3; format: biochemical; details: for remaining activity at 100 µM: read-out: residual kinase activity, JNK3
JNK3, sequence (P53779 whole entry, species assumed): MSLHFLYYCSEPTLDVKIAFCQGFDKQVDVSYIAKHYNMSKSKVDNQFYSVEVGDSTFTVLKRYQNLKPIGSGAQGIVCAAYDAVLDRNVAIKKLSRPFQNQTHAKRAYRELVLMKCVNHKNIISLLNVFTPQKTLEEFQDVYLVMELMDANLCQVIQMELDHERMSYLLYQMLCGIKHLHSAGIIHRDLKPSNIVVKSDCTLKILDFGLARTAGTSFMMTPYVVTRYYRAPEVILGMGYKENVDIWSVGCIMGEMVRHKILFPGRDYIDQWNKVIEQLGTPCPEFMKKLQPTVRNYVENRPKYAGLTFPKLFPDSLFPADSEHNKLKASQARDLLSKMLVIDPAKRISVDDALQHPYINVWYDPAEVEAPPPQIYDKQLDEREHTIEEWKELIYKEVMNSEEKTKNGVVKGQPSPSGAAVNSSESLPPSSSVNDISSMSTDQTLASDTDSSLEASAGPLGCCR
Excerpt: as §1

AMPK (hum) = assay: Kinase profiling AMPK (hum); format: biochemical, human; details: 100 micromolar inhibitor concentration; 100 is no change
Excerpt: as §1

Src = Src (Homo sapiens, UniProt P12931); assay: Kinase profiling Src; format: biochemical; details: for remaining activity at 100 µM: read-out: residual kinase activity, Src
Src, sequence (P12931 whole entry, species assumed): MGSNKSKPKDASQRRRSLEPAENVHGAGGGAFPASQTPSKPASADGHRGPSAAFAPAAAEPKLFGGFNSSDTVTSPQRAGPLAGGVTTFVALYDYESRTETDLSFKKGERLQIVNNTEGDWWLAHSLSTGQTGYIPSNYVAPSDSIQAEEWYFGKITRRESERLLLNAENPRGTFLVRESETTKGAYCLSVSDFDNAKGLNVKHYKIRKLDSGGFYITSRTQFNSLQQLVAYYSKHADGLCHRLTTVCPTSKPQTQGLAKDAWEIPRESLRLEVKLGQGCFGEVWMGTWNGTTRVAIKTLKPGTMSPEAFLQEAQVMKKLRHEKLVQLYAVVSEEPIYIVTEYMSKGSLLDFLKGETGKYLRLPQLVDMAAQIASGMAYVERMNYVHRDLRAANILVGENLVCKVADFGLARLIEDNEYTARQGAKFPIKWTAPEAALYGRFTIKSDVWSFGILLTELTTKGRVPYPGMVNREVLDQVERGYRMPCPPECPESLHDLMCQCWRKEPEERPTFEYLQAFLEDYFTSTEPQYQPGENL
Excerpt: as §1

HIPK2 = HIPK2 (Homo sapiens, UniProt Q9H2X6); assay: Kinase profiling HIPK2; format: biochemical; details: for remaining activity at 100 µM: read-out: residual kinase activity, HIPK2
HIPK2, sequence (Q9H2X6 whole entry, species assumed): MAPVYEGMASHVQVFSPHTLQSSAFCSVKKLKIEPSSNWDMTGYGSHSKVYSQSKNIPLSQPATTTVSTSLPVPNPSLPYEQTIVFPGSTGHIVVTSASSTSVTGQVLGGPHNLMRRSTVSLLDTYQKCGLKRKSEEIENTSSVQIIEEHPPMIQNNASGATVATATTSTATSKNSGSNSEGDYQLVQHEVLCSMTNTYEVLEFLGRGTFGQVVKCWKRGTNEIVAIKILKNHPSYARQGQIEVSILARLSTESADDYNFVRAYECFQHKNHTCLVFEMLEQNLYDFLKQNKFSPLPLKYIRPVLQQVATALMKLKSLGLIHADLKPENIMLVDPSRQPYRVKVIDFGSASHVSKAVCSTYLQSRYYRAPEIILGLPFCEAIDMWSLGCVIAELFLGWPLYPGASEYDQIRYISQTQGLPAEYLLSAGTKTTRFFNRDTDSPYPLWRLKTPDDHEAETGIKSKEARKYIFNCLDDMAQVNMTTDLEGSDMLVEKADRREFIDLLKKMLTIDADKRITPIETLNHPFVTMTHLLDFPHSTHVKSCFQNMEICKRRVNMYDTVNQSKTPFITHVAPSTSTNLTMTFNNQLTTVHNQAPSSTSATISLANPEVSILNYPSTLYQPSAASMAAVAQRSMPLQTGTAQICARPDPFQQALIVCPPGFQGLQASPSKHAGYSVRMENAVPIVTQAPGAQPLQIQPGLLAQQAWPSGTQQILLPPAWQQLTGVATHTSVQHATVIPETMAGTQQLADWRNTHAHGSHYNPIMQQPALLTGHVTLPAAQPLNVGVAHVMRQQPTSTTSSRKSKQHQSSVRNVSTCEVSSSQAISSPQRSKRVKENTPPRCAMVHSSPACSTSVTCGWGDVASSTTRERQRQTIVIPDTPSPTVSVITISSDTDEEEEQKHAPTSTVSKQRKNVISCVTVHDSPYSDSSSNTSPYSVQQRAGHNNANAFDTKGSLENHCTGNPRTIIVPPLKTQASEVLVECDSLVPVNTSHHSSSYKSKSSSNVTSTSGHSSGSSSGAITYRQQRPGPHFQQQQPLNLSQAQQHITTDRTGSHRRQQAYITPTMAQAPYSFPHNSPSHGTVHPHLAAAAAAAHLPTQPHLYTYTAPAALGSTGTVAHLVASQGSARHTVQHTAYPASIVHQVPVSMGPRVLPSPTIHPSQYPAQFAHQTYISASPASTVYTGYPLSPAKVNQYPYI
Excerpt: as §1

[1] = 100 micromolar inhibitor concentration, 100 is no change

SMILES | residual kinase activity, JNK1 (JNK1; [1]) | residual kinase activity, PDK1 (PDK1; [1]) | residual kinase activity, JNK2 (JNK2; [1]) | residual kinase activity, STK33 (STK33; [1]) | residual kinase activity, S6K1 (S6K1; [1]) | residual kinase activity, ERK1 (ERK1; [1]) | residual kinase activity, JNK3 (JNK3; [1]) | further results
O=C(Nc1nc2cc(O)ccc2s1)c1ccncc1 [Compound 03-11] | 95 | 100 | 93 | 77 | 83 | 88 | 77 | residual kinase activity, LKB1 (LKB1; [1]): 87; residual kinase activity, TrkA (TrkA; [1]): 87; residual kinase activity, JAK2 (JAK2; [1]): 66; residual kinase activity, CAMK1 (CAMK1; [1]): 85; residual kinase activity, AMPK (hum) (AMPK (hum)): 98; residual kinase activity, Src (Src; [1]): 79; residual kinase activity, HIPK2 (HIPK2; [1]): 67
CC(=O)Nc1nc2cc(C)ccc2s1 [Compound 03-76] | 97 | 93 | 105 | 80 | 77 | 91 | 76 | residual kinase activity, LKB1 (LKB1; [1]): 96; residual kinase activity, TrkA (TrkA; [1]): 56; residual kinase activity, JAK2 (JAK2; [1]): 51; residual kinase activity, CAMK1 (CAMK1; [1]): 90; residual kinase activity, AMPK (hum) (AMPK (hum)): 69; residual kinase activity, Src (Src; [1]): 79; residual kinase activity, HIPK2 (HIPK2; [1]): 51
CC(=O)Nc1nc2cc(O)ccc2s1 [Compound 01-66, N-(5-hydroxybenzo[d]thiazol-2-yl)acetamide] | – | – | – | – | – | – | – | remaining activity at 100 µM (LKB1): 38%; remaining activity at 100 µM (TrkA): 57%; remaining activity at 100 µM (JNK1): 53%; remaining activity at 100 µM (JAK2): 65%; remaining activity at 100 µM (PDK1): 69%; remaining activity at 100 µM (JNK2): 63%; remaining activity at 100 µM (STK33): 52%; remaining activity at 100 µM (S6K1): 54%; remaining activity at 100 µM (CAMK1): 69%; remaining activity at 100 µM (ERK1): 61%; remaining activity at 100 µM (JNK3): 37%; remaining activity at 100 µM (Src): 45%; remaining activity at 100 µM (HIPK2): 20%
CC(=O)Nc1nc2ccc(O)cc2s1 [Compound 01-71] | – | – | – | – | – | – | – | remaining activity at 100 µM (LKB1; [1]): 17%; remaining activity at 100 µM (TrkA; [1]): 42%; remaining activity at 100 µM (JNK1; [1]): 72%; remaining activity at 100 µM (JAK2; [1]): 43%; remaining activity at 100 µM (PDK1; [1]): 63%; remaining activity at 100 µM (JNK2; [1]): 82%; remaining activity at 100 µM (STK33; [1]): 41%; remaining activity at 100 µM (S6K1; [1]): 23%; remaining activity at 100 µM (CAMK1; [1]): 52%; remaining activity at 100 µM (ERK1; [1]): 65%; remaining activity at 100 µM (JNK3; [1]): 66%; remaining activity at 100 µM (Src; [1]): 57%; remaining activity at 100 µM (HIPK2; [1]): 14%
COc1ccc2sc(NC(=O)c3cccc(NC(C)=O)c3)nc2c1 [MS:LY-2-85] | 97 | 80 | 100 | 75 | 50 | 86 | 62 | –
CC(=O)Nc1ccccc1C(=O)Nc1nc2ccc(O)cc2s1 [Compound 08-39] | 92 | 66 | 93 | 61 | 12 | 18 | 53 | –
COc1ccc2sc(NC(=O)c3ccc(NC(C)=O)cc3)nc2c1 [MS:LY-2-77] | 104 | 103 | 99 | 99 | 94 | 87 | 88 | –
CC(=O)Nc1cccc(C(=O)Nc2nc3ccc(O)cc3s2)c1 [Compound 03-58] | 80 | 96 | 99 | 45 | 9 | 84 | 51 | –
CC(=O)NC(C)C(=O)Nc1nc2ccc(C(F)(F)F)cc2s1 (centres unmarked) [Compound 03-80] | 86 | 86 | 87 | 60 | 97 | 94 | 79 | –
CC(=O)Nc1ccc(C(=O)Nc2nc3cc(O)ccc3s2)cc1 [MS:LY-2-87] | 105 | 69 | 105 | 51 | 39 | 70 | 66 | –
COC(=O)c1cccc(C(=O)Nc2nc3ccc(C(F)(F)F)cc3s2)c1 [Compound 03-105, Methyl 3-((6-(trifluoromethyl)benzo[d]thiazol-2-yl)carbamoyl)benzoate] | – | – | – | – | – | – | – | remaining activity at 100 µM (LKB1): 91%; remaining activity at 100 µM (TrkA): 82%; remaining activity at 100 µM (JNK1): 84%; remaining activity at 100 µM (JAK2): 101%; remaining activity at 100 µM (PDK1): 87%; remaining activity at 100 µM (S6K1): 78%; remaining activity at 100 µM (CAMK1): 92%; residual kinase activity, AMPK (hum) (AMPK (hum)): 71; remaining activity at 100 µM (Src): 165%; remaining activity at 100 µM (HIPK2): 72%
CC(=O)Nc1cccc(C(=O)Nc2nc3cc(O)ccc3s2)c1 [MS:LY-2-89] | 68 | 44 | 93 | 37 | 14 | 54 | 36 | –

Reference: patent US10231954B2, “Neurodegenerative therapies” (LYTIX BIOPHARMA AS, priority 2014, dated 2019)
